Results from publication PMC9848282, “Antinociceptive activity of doliroside B” (Pharmaceutical Biology, 2023).
Values joined by “and” are separate entries in the source; they are usually repeats but may differ in a detail not shown here. Equal entries are not always repeated.

How the values were obtained:
[1] = test system: hot plate-induced nociception in mice; test: Eddy's hot plate test; assay type: in vivo
Method: Female Kunming mice (20 ± 2 g) from Chengdu Dossy Experiment Animal Co., Ltd. (Sichuan, China) were used for antinociceptive experiments. These animals were kept under a constant temperature (23 ± 1 °C), humidity (40–70%), airflow speed ([…]) and noise (≤ 60 db), and maintained under a 12 h light-dark cycle. After the experiment is completed, mice were euthanized humanely. All the animal experiments were approved by the Institutional Animal Care and Use Committee of Yunnan Minzu University (permit no. 20200608).
This was performed according to a previously reported procedure (Eddy and Leimbach [1953]). The pain threshold was defined as the duration from the beginning of placing mice on the plate to the mice jumping, licking, or shaking its paws. Because the scrotum of male mice is saggy, which can be stimulated by hot plate, healthy female mice with pain threshold less than 20 s were used for hot plate test. […] After administration of the test compounds, the pain threshold was recorded at 0, 30, 60, 90, and 120 min. Among the tests in the absence and presence of NAL (5 mg/kg), i.p. injection of NAL was performed 10 min before administration of testing compounds. […]

[2] = test system: formalin-induced nociception in mice; test: Formalin test; assay type: in vivo
Nav1.2 = Nav1.2 (Homo sapiens, UniProt Q99250); assay type: cell-based
[3] = test system: acetic acid-induced writhing in Kunming mice; test: Acetic acid-induced writhing test; assay type: in vivo; settings: for ED50: Mus musculus, read-out: ED50 (median effective dose); for effect of NAL on the reduction of writhing number: absence vs presence of NAL 5 mg/kg i.p., MOP 1, IND 10, ASA 100, DB 5, DBDS 5 mg/kg, Figure 4; for fold weaker than DBDS (ED50): writhing test, ED50 compared with DBDS
NO production = test: cells; assay type: cell-based; settings: Mus musculus, RAW264.7; 25 µmol/L (positive control); LPS-stimulated, 24 h
TRPV1 channel = TRPV1 channel (Homo sapiens, UniProt Q8NER1); test: cell-based; assay type: cell-based
[4] = hot plate test, absence vs presence of NAL 5 mg/kg i.p.
[5] = formalin test, absence vs presence of NAL 5 mg/kg i.p., MOP 1, IND 10, ASA 100, DB 20, DBDS 20 mg/kg, Figure 5

Chain of TRPV1 channel (Q8NER1 whole entry): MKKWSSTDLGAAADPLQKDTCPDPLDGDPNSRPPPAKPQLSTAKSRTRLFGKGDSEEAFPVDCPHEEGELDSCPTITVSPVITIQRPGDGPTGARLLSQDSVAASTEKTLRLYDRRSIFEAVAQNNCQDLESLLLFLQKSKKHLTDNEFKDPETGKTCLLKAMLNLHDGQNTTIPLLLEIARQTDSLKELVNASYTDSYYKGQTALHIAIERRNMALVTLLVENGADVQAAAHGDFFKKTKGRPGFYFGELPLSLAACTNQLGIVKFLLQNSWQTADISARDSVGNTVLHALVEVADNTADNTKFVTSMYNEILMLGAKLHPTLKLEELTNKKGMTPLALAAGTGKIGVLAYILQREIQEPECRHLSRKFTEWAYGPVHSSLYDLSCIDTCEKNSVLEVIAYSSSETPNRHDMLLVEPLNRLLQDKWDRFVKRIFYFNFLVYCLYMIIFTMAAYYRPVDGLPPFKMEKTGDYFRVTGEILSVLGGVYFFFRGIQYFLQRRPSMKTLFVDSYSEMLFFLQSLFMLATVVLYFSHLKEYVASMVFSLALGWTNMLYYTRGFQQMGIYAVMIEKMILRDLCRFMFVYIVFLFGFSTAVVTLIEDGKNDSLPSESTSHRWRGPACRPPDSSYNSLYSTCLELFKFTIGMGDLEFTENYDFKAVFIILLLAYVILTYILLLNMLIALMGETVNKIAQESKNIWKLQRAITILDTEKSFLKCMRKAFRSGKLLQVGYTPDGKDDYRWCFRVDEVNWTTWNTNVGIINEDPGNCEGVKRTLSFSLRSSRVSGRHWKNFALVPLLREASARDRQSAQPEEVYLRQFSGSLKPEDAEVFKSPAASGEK
Chain of Nav1.2 (Q99250 whole entry): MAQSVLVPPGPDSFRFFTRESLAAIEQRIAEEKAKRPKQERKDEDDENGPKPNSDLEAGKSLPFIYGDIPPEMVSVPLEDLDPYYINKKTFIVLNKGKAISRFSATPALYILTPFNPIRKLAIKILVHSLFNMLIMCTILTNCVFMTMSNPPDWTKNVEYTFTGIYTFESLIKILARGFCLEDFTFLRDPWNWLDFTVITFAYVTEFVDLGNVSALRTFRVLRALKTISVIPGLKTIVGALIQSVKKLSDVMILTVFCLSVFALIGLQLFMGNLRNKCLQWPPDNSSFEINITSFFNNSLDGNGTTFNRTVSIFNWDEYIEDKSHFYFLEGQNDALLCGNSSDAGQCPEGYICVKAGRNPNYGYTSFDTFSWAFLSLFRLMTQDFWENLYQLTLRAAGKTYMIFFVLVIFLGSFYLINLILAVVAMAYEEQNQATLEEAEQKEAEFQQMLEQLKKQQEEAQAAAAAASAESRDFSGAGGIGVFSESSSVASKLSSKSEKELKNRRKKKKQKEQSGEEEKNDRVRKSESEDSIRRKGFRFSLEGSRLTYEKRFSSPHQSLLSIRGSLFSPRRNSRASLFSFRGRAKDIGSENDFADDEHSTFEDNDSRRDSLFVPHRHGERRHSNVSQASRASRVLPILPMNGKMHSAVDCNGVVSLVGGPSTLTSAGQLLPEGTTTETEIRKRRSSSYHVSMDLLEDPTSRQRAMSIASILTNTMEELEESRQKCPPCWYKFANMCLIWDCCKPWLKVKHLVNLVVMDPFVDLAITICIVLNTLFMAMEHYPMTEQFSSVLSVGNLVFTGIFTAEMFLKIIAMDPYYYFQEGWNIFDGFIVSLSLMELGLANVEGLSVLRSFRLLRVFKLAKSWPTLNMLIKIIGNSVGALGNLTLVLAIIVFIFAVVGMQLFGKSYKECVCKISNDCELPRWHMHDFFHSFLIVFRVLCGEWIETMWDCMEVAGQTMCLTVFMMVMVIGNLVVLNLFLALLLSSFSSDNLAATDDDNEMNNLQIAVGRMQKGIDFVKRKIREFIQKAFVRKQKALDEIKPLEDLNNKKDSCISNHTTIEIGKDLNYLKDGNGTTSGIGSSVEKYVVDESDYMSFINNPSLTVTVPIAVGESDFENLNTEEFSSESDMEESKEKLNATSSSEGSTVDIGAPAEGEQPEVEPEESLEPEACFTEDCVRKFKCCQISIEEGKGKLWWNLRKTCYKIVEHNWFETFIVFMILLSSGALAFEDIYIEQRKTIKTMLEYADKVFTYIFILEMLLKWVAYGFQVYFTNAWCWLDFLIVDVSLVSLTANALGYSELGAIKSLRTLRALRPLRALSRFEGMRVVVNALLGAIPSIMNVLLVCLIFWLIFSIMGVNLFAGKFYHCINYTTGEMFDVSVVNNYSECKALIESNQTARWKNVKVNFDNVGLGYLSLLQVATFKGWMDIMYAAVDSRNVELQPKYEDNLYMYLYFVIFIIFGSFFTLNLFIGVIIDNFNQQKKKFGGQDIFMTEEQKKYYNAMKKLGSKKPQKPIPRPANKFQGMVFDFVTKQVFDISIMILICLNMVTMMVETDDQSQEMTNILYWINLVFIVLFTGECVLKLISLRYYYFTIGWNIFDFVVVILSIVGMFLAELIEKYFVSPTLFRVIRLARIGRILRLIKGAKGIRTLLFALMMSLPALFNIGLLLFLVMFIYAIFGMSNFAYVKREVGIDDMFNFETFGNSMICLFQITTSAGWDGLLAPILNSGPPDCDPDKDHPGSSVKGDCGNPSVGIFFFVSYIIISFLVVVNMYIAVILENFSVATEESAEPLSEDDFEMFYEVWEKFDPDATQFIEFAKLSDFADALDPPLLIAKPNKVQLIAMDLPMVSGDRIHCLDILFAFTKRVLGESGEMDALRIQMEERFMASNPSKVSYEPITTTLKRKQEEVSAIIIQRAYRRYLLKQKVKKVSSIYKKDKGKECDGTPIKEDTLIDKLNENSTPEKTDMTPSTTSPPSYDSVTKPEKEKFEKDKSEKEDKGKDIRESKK

Compound: CN1CC[C@]23c4c5ccc(O)c4O[C@H]2[C@@H](O)C=C[C@H]3[C@H]1C5 [MOP, morphine]
- effect of NAL on the antinociceptive effect ([1]; mouse, in vivo): removed by NAL
- effect of NAL on the antinociceptive effect ([2]; mouse, in vivo): removed by NAL
- inhibition of licking time ([2]; mouse, in vivo, ip, 1 mg/kg): 55.3% and 75.9%

Compound: NC1=N[C@H](O)[C@H]2[C@H]3O[C@]4(O)O[C@@H]([C@@H](O)[C@@]2(N1)[C@@H]4O)[C@]3(O)CO [TTX, Tetrodotoxin]
- IC50 (Nav1.2): 0.016 ± 0.015 µM

Compound: CC(=O)Oc1ccccc1C(=O)O [ASA, Acetylsalicylic acid]
- inhibition of writhing number ([3]; 100 mg/kg oral, Figure 1(A) experiment): 61.2%
- inhibition of writhing number ([3]; 200 mg/kg, dose-response Figure 1(E)): 73.3%
- ED50 ([3]; writhing test in mice): 70.1 mg/kg
- effect of NAL on the reduction of writhing number [3]: Only a minor difference
- Pain threshold ([1]; 100 mg/kg, absence of NAL, 30 min, Table 2): 20.3 ± 5.9 s
- Pain threshold ([1]; 100 mg/kg, absence of NAL, 60 min, Table 2): 19.8 ± 3.2 s
- Pain threshold ([1]; 100 mg/kg, absence of NAL, 90 min, Table 2): 14.1 ± 4.3 s
- Pain threshold ([1]; 100 mg/kg, 30 min, Table 1): 18.6 ± 5.2 s
- Pain threshold ([1]; 100 mg/kg, 60 min, Table 1): 17.8 ± 3.3 s
- Pain threshold ([1]; 100 mg/kg, 90 min, Table 1): 12.9 ± 4.0 s
- Pain threshold ([1]; 100 mg/kg, 120 min, Table 1): 10.6 ± 2.8 s
- effect of NAL on the antinociceptive effect [1, 4]: not effectively removed by NAL
- effect of NAL on the antinociceptive effect [2, 5]: not effectively removed by NAL
- inhibition of licking time ([2]; late phase (15-30 min), 100 mg/kg i.g.): 64.8%

Compound: [H]/N=C(/NC)NCCC[C@H](N)C(=O)O [L-NMMA, NG-Monomethyl-L-arginine acetate]
- inhibition at 25 µM (NO production): 73%

Compound: COc1ccc2c(c1)c(CC(=O)O)c(C)n2C(=O)c1ccc(Cl)cc1 [IND, indomethacin]
- inhibition of writhing number ([3]; 10 mg/kg oral, Figure 1(A) experiment): 58.7%
- inhibition of writhing number ([3]; 20 mg/kg, dose-response Figure 1(D)): 76.1%
- ED50 ([3]; writhing test in mice): 5.91 mg/kg
- effect of NAL on the reduction of writhing number [3]: Only a minor difference
- fold weaker than DBDS (ED50) [3]: approximately 5 fold
- Pain threshold ([1]; 10 mg/kg, absence of NAL, 0 min, Table 2): 12.1 ± 2.9 s
- Pain threshold ([1]; 10 mg/kg, absence of NAL, 30 min, Table 2): 11.7 ± 3.0 s
- Pain threshold ([1]; 10 mg/kg, absence of NAL, 60 min, Table 2): 11.6 ± 2.2 s
- Pain threshold ([1]; 10 mg/kg, absence of NAL, 90 min, Table 2): 10.7 ± 2.1 s
- Pain threshold ([1]; 10 mg/kg, absence of NAL, 120 min, Table 2): 12.0 ± 3.2 s
- Pain threshold ([1]; 10 mg/kg, 0 min, Table 1): 11.3 ± 2.8 s
- Pain threshold ([1]; 10 mg/kg, 30 min, Table 1): 11.7 ± 3.4 s
- Pain threshold ([1]; 10 mg/kg, 60 min, Table 1): 12.5 ± 3.0 s
- Pain threshold ([1]; 10 mg/kg, 90 min, Table 1): 12.1 ± 2.9 s
- Pain threshold ([1]; 10 mg/kg, 120 min, Table 1): 10.9 ± 2.9 s
- effect of NAL on the antinociceptive effect [1, 4]: not effectively removed by NAL
- effect of NAL on the antinociceptive effect [2, 5]: not effectively removed by NAL
- inhibition of licking time ([2]; late phase (15-30 min), 10 mg/kg i.g.): 57.3%

Compound: Oc1cc2c(cc1O)CN(C(=S)NCCc1ccc(Cl)cc1)CCC2 [capsazepine]
- IC50 (TRPV1 channel; TRPV1 inhibitor control): 7.3 ± 0.06 µM

Compound: COc1cc(CNC(=O)CCCC/C=C/C(C)C)ccc1O [capsaicin]
- direct effect on TRPV1 activity (compound alone) (TRPV1 channel; compound alone): induced a significant activation

Compound: doliroside B [DB]
- inhibition of writhing number ([3]; 5 mg/kg oral, dose-response Figure 1(B-D)): 58.7%
- effect of NAL on the reduction of writhing number [3]: Only a minor difference
- ED50 (median effective dose) ([3]; writhing test in mice): 4.68 mg/kg
- fold weaker than DBDS (ED50) [3]: ~4 fold
- Pain threshold ([1]; 2.5 mg/kg, 0 min, Table 1): 12.0 ± 4.4 s
- Pain threshold ([1]; 2.5 mg/kg, 30 min, Table 1): 12.1 ± 3.7 s
- Pain threshold ([1]; 2.5 mg/kg, 60 min, Table 1): 12.7 ± 4.4 s
- Pain threshold ([1]; 2.5 mg/kg, 90 min, Table 1): 14.2 ± 4.7 s
- Pain threshold ([1]; 2.5 mg/kg, 120 min, Table 1): 12.4 ± 3.4 s
- Pain threshold ([1]; 5 mg/kg, 0 min, Table 1): 11.4 ± 2.9 s
- Pain threshold ([1]; 5 mg/kg, 30 min, Table 1): 12.0 ± 3.4 s
- Pain threshold ([1]; 5 mg/kg, 60 min, Table 1): 10.2 ± 2.9 s
- Pain threshold ([1]; 5 mg/kg, 90 min, Table 1): 12.6 ± 3.6 s
- Pain threshold ([1]; 5 mg/kg, 120 min, Table 1): 10.9 ± 3.7 s
- Pain threshold ([1]; 10 mg/kg, 0 min, Table 1): 10.4 ± 3.0 s
- Pain threshold ([1]; 10 mg/kg, 30 min, Table 1): 14.6 ± 4.9 s
- Pain threshold ([1]; 10 mg/kg, 60 min, Table 1): 16.4 ± 6.2 s
- Pain threshold ([1]; 10 mg/kg, 90 min, Table 1): 15.6 ± 4.2 s
- Pain threshold ([1]; 10 mg/kg, 120 min, Table 1): 12.6 ± 3.7 s
- Pain threshold ([1]; 20 mg/kg, absence of NAL, 0 min, Table 2): 11.8 ± 3.3 s
- Pain threshold ([1]; 20 mg/kg, absence of NAL, 30 min, Table 2): 19.6 ± 4.2 s
- Pain threshold ([1]; 20 mg/kg, absence of NAL, 60 min, Table 2): 21.7 ± 5.9 s
- Pain threshold ([1]; 20 mg/kg, absence of NAL, 90 min, Table 2): 18.0 ± 5.6 s
- Pain threshold ([1]; 20 mg/kg, absence of NAL, 120 min, Table 2): 15.2 ± 4.6 s
- Pain threshold ([1]; 20 mg/kg, 0 min, Table 1): 11.8 ± 3.3 s
- Pain threshold ([1]; 20 mg/kg, 30 min, Table 1): 18.8 ± 3.6 s
- Pain threshold ([1]; 20 mg/kg, 60 min, Table 1): 19.7 ± 5.3 s
- Pain threshold ([1]; 20 mg/kg, 90 min, Table 1): 18.1 ± 6.3 s
- Pain threshold ([1]; 20 mg/kg, 120 min, Table 1): 13.8 ± 4.2 s
- effect of NAL on the antinociceptive effect [1, 4]: not effectively removed by NAL
- effect of NAL on the antinociceptive effect [2, 5]: not effectively removed by NAL
